From patent US20150105252A1, “SUBSTITUTED PYRAZOLES AS HERBICIDES” (E I DU PONT DE NEMOURS AND COMPANY, priority 2013, published 2015)

Legend:
corn [1] = experiment: Test A preemergence; type: in vivo, Zea mays; conditions: preemergence
How it was run: (§1)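 Scoring was visual, on a scale where 100 means complete control and 0 means no effect, comparing treated with untreated plants around 10 days post-application. Compounds in surfactant-containing non-phytotoxic solvent were sprayed onto soil preemergence or onto one- to two-leaf seedlings (2–10 cm) postemergence.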

rice = experiment: Test B flood; type: in vivo, Oryza sativa; conditions: 250 g ai/ha, visual rating on 0 to 100 scale (0 no effect, 100 complete control), 13 to 15 days
How it was run: (§2)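 Paddy-water application: seedlings at 2-leaf stage, flood depth 3 cm maintained for the test duration. Evaluation after 13–15 days in the greenhouse by eye relative to controls; 0–100 scale.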

sedge, umbrella = experiment: Test B flood; type: in vivo, Cyperus difformis; conditions: 250 g ai/ha, visual rating on 0 to 100 scale (0 no effect, 100 complete control), 13 to 15 days
How it was run: as §2

crabgrass, large [2] = experiment: Test A postemergence; type: in vivo, Digitaria sanguinalis
How it was run: as §1

ducksalad = experiment: Test B flood; type: in vivo, Heteranthera limosa; conditions: 250 g ai/ha, visual rating on 0 to 100 scale (0 no effect, 100 complete control), 13 to 15 days
How it was run: as §2

velvetleaf [3] = experiment: Test A preemergence; type: in vivo, Abutilon theophrasti; conditions: preemergence
How it was run: as §1

wheat [4] = experiment: Test A postemergence; type: in vivo, Triticum aestivum
How it was run: as §1

morningglory [5] = experiment: Test A postemergence; type: in vivo, Ipomoea spp.
How it was run: as §1

foxtail, giant [6] = experiment: Test A preemergence; type: in vivo, Setaria faberii; conditions: preemergence
How it was run: as §1

barnyardgrass [7] = experiment: Test A postemergence; type: in vivo, Echinochloa crus-galli
How it was run: as §1

pigweed [8] = experiment: Test A preemergence; type: in vivo, Amaranthus retroflexus; conditions: preemergence
How it was run: as §1

velvetleaf [9] = experiment: Test A postemergence; type: in vivo, Abutilon theophrasti
How it was run: as §1

foxtail, giant [10] = experiment: Test A postemergence; type: in vivo, Setaria faberii
How it was run: as §1

corn [11] = experiment: Test A postemergence; type: in vivo, Zea mays
How it was run: as §1

pigweed [12] = experiment: Test A postemergence; type: in vivo, Amaranthus retroflexus
How it was run: as §1

wheat [13] = experiment: Test A preemergence; type: in vivo, Triticum aestivum; conditions: preemergence
How it was run: as §1

barnyardgrass [14] = experiment: Test B flood; type: in vivo, Echinochloa crus-galli; conditions: 250 g ai/ha, visual rating on 0 to 100 scale (0 no effect, 100 complete control), 13 to 15 days
How it was run: as §2

morningglory [15] = experiment: Test A preemergence; type: in vivo, Ipomoea spp.; conditions: preemergence
How it was run: as §1

barnyardgrass [16] = experiment: Test A preemergence; type: in vivo, Echinochloa crus-galli; conditions: preemergence
How it was run: as §1

crabgrass, large [17] = experiment: Test A preemergence; type: in vivo, Digitaria sanguinalis; conditions: preemergence
How it was run: as §1

[18] = 125 g ai/ha, visual injury, 0 to 100 scale, approx. 10 days
[19] = 500 g ai/ha, visual injury after approx. 10 days, 0 to 100 scale (0 no effect, 100 complete control)
[20] = Postemergence, 500 g ai/ha, visual rating after approx. 10 days, 0 to 100 scale (0 no effect, 100 complete control)
[21] = postemergence, 125 g ai/ha, about 10 days, visual rating on 0 to 100 scale (0 no effect, 100 complete control)

Structure (SMILES)	Corn plant response rating (corn [1]; [18])	Corn plant response rating (corn [1]; [19])	Plant response rating, Rice (rice)	Plant response rating, Sedge, Umbrella (sedge, umbrella)	Crabgrass, Large plant response rating (crabgrass, large [2]; [20])	Crabgrass, Large plant response rating (crabgrass, large [2]; [21])	Plant response rating, Ducksalad (ducksalad)	Velvetleaf plant response rating (velvetleaf [3]; [18])	Velvetleaf plant response rating (velvetleaf [3]; [19])	Wheat plant response rating (wheat [4]; [20])	Wheat plant response rating (wheat [4]; [21])	Morningglory plant response rating (morningglory [5]; [20])	Morningglory plant response rating (morningglory [5]; [21])	Foxtail, Giant plant response rating (foxtail, giant [6]; [18])	Foxtail, Giant plant response rating (foxtail, giant [6]; [19])	Barnyardgrass plant response rating (barnyardgrass [7]; [20])	Barnyardgrass plant response rating (barnyardgrass [7]; [21])	Pigweed plant response rating (pigweed [8]; [18])	Pigweed plant response rating (pigweed [8]; [19])	Velvetleaf plant response rating (velvetleaf [9]; [20])	also measured
CCc1cc(C(=O)NOC)nn1Cc1ccnc(C(F)(F)F)c1 [Compound 99]	50	90	0	75	100	60	50	10	80	70	20	100	50	90	100	90	20	90	100	90	Velvetleaf plant response rating (velvetleaf [9]; [21]): 20; Foxtail, Giant plant response rating (foxtail, giant [10]; [20]): 100; Foxtail, Giant plant response rating (foxtail, giant [10]; [21]): 60; Corn plant response rating (corn [11]; [20]): 90; Corn plant response rating (corn [11]; [21]): 50; Pigweed plant response rating (pigweed [12]; [20]): 100; Pigweed plant response rating (pigweed [12]; [21]): 70; Wheat plant response rating (wheat [13]; [18]): 0; Wheat plant response rating (wheat [13]; [19]): 60; Plant response rating, Barnyardgrass (barnyardgrass [14]): 0; Morningglory plant response rating (morningglory [15]; [18]): 60; Morningglory plant response rating (morningglory [15]; [19]): 100; Barnyardgrass plant response rating (barnyardgrass [16]; [18]): 40; Barnyardgrass plant response rating (barnyardgrass [16]; [19]): 100; Crabgrass, Large plant response rating (crabgrass, large [17]; [18]): 100; Crabgrass, Large plant response rating (crabgrass, large [17]; [19]): 100
CCc1cc(-c2ccc(F)cc2)nn1Cc1ccnc(C(F)(F)F)c1 [Compound 111]	0	0	20	90	100	30	0	10	30	30	10	100	90	90	100	80	20	20	100	90	Velvetleaf plant response rating (velvetleaf [9]; [21]): 40; Foxtail, Giant plant response rating (foxtail, giant [10]; [20]): 100; Foxtail, Giant plant response rating (foxtail, giant [10]; [21]): 40; Corn plant response rating (corn [11]; [20]): 50; Corn plant response rating (corn [11]; [21]): 10; Pigweed plant response rating (pigweed [12]; [20]): 100; Pigweed plant response rating (pigweed [12]; [21]): 80; Wheat plant response rating (wheat [13]; [18]): 0; Wheat plant response rating (wheat [13]; [19]): 0; Plant response rating, Barnyardgrass (barnyardgrass [14]): 15; Morningglory plant response rating (morningglory [15]; [18]): 0; Morningglory plant response rating (morningglory [15]; [19]): 30; Barnyardgrass plant response rating (barnyardgrass [16]; [18]): 10; Barnyardgrass plant response rating (barnyardgrass [16]; [19]): 90; Crabgrass, Large plant response rating (crabgrass, large [17]; [18]): 90; Crabgrass, Large plant response rating (crabgrass, large [17]; [19]): 100
